“Also recorded” adds a separate entry of the source. Like-named read-outs stand apart in the source and are kept apart here.
Tests used:
[1] = tested on: HEK293 cells; experiment: In vitro cytotoxicity assay (Alamar Blue); assay type: cell-based, human; conditions: for IC50: HEK293, 72 h, n = 2
Description: Human embryonic kidney cells (HEK293) were maintained in DMEM (Life Technologies, Camarillo, CA, USA) containing 10% FBS (Hyclone™ ThermoFisher, Melbourne, Australia). Cytotoxicity testing was undertaken as previously described. In brief, 5 μL of test compound was added/well of black/clear tissue culture treated 384-well plates containing 3000 adherent HEK293 cells/well in 45 μL and incubated 72 h at 37 °C in 5% CO2. After incubation, the supernatant was removed and replaced with 40 μL of 10% Alamar Blue per well. Plates were incubated for 5–6 h and measured for fluorescence at 530 nm excitation and 595 nm emission. The % inhibition was calculated using 0.4% DMSO (no inhibition) and 5 μM puromycin (100% inhibition) data. IC50 values were obtained by plotting % inhibition against log dose using GraphPad Prism v.6 (San Diego, CA, USA), nonlinear regression with a variable slope plot.

[2] = tested on: Plasmodium falciparum Dd2; experiment: In vitro antimalarial image-based asexual assay, Dd2; assay type: cell-based; conditions: for IC50: Plasmodium falciparum, DD2, 72 h, n = 4, read-out: Pf Dd2 IC50 ± SD; for SI for Dd2: SI = HEK293 IC50/parasite IC50
Description: (§1) Plasmodium falciparum 3D7 and Dd2 parasites were cultured in RPMI1640 (Life Technologies, Camarillo, CA, USA) supplemented with 2.5 mg/mL Albumax II, 5% AB human serum, 25 mM HEPES and 0.37 mM hypoxanthine. Ring-stage parasites were treated with compounds following two rounds of sorbitol synchronisation as previously described. Artesunate, pyrimethamine and puromycin were incorporated as controls. Following incubation of assay plates for 72 h at 37 °C, and 5% CO2 and 5% O2, parasites were stained with 2-(4-amidinophenyl)-1H-indole-6-carboxamidine (DAPI) and imaged using an Opera QEHS confocal imaging system (PerkinElmer, Waltham, MA, USA). Images were analysed as previously described using Acapella spot detection software (PerkinElmer, Waltham, MA, USA).

[3] = tested on: Plasmodium falciparum 3D7; experiment: In vitro antimalarial image-based asexual assay, 3D7; assay type: cell-based; conditions: for IC50: Plasmodium falciparum, 3D7, chloroquine-sensitive strain, 72 h, n = 4, read-out: Pf 3D7 IC50 ± SD; for SI for 3D7: SI = HEK293 IC50/parasite IC50
Description: as §1

[4] = tested on: Plasmodium falciparum 3D7; parameters: method as in PMID 24032556; conditions: cited from earlier work; for IC50: drug-sensitive strain, read-out: IC50 Pf (3D7)
[5] = tested on: Plasmodium falciparum Dd2; parameters: method as in PMID 24032556; conditions: cited from earlier work; for IC50: drug-resistant strain, read-out: IC50 Pf (Dd2)
[6] = tested on: HEK293 cells; parameters: method as in PMID 24032556; conditions: cited from earlier work
[7] = human embryonic kidney cells, mean ± SD
[8] = chloroquine, pyrimethamine and mefloquine drug-resistant strain, mean ± SD
[9] = Homo sapiens, controls, read-out: HEK293 IC50 ± SD
[10] = controls, drug-resistant strain
[11] = N-Boc group of compound 7 removed
[12] = bromine at C-2 replaced with iodine

| Compound | IC50 [2, 8] | IC50 ([3]; mean ± SD) | IC50 [1, 7] | SI for Dd2 [2] | SI for 3D7 [3] | further results |
| --- | --- | --- | --- | --- | --- | --- |
| NCCc1c(C(F)(F)F)[nH]c2c1C(=O)C1=C(NC=C(C(F)(F)F)S1(=O)=O)C2=O [Compound 11] | 4550 ± 1150 nM | 6800 ± 2440 nM | > 80000 nM | >18 | >12 |  |
| CN[C@@H](Cc1c[nH]c2c1C(=O)C1=C(NC=CS1(=O)=O)C2=O)C(=O)O [Thiaplakortone C] |  |  |  |  |  | IC50 [4]: 310 nM; IC50 [5]: 170 nM |
| CCc1nc(N)nc(N)c1-c1ccc(Cl)cc1 [Pyrimethamine, reference compound] |  |  |  |  | >10,666 | IC50 [1, 9]: > 40000 nM; IC50 [2, 10]: > 40000 nM; IC50 ([3]; controls): 3.75 ± 0.3 nM |
| CC(C)(C)OC(=O)NCCc1c[nH]c2c1C(=O)C1=C(NC=CS1(=O)=O)C2=O [Compound 2, Boc-protected thiaplakortone A] | 86 ± 12 nM | 227 ± 44 nM | 5530 ± 21 nM | 64 | 24 |  |
| CN[C@@H](Cc1c[nH]c2c1C(=O)C1=C(C2=O)S(=O)(=O)C=CN1)C(=O)O [Thiaplakortone D] |  |  |  |  |  | IC50 [4]: 280 nM; IC50 [5]: 160 nM |
| CC(C)(C)OC(=O)NCCc1c(I)[nH]c2c1C(=O)C1=C(NC=C(I)S1(=O)=O)C2=O [Compound 8] | 659 ± 119 nM | 1620 ± 154 nM | > 80000 nM | >121 | >49 |  |
| C[C@H]1[C@H](OC(=O)CCC(=O)O)O[C@@H]2O[C@@]3(C)CC[C@H]4[C@H](C)CC[C@@H]1[C@@]24OO3 [Artesunate, reference compound] |  |  |  | >10,526 | >8163 | IC50 [1, 9]: > 4000 nM; IC50 [2, 10]: 0.38 ± 0.01 nM; IC50 ([3]; controls): 0.49 ± 0.2 nM |
| NCCc1c[nH]c2c1C(=O)C1=C(NCCS1(=O)=O)C2=O [Thiaplakortone B] |  |  |  |  |  | IC50 [4]: 650 nM; IC50 [5]: 92 nM |
| CC(C)(C)OC(=O)NCCc1c(Br)[nH]c2c1C(=O)C1=C(NC=C(Br)S1(=O)=O)C2=O [Compound 4] | 2060 ± 192 nM | 1370 ± 117 nM | > 80000 nM | >39 | >58 | fold decrease in antimalarial activity against 3D7 upon removal of the Boc group ([3]; compound 4 after Boc removal): 1.2 fold |
| COc1ccc(C[C@H](N)C(=O)N[C@H]2[C@@H](O)[C@H](n3cnc4c(N(C)C)ncnc43)O[C@@H]2CO)cc1 [Puromycin, reference compound] |  |  |  | 61 | 33 | IC50 [1, 9]: 1040 ± 66 nM; IC50 [2, 10]: 17 ± 3.96 nM; IC50 ([3]; controls): 31.9 ± 16.2 nM |

Further lines, with some results ahead:

| IC50 [2, 8] | IC50 ([3]; mean ± SD) | Compound | IC50 [1, 7] | SI for Dd2 [2] | SI for 3D7 [3] | further results |
| --- | --- | --- | --- | --- | --- | --- |
| 583 ± 94 nM | 3520 ± 350 nM | CC(C)(C)OC(=O)NCCc1c[nH]c2c1C(=O)C1=C(NC=C(Br)S1(=O)=O)C2=O [Compound 3] | > 80000 nM | >137 | >23 |  |
| 725 ± 244 nM | 1680 ± 316 nM | NCCc1c(I)[nH]c2c1C(=O)C1=C(NC=C(I)S1(=O)=O)C2=O [Compound 10] | > 80000 nM | >110 | >47 |  |
| 487 ± 98 nM | 1650 ± 194 nM | NCCc1c(Br)[nH]c2c1C(=O)C1=C(NC=C(Br)S1(=O)=O)C2=O [Compound 6] | > 80000 nM | >164 | >48 |  |
| 317 ± 8 nM | 2220 ± 248 nM | NCCc1c[nH]c2c1C(=O)C1=C(NC=C(I)S1(=O)=O)C2=O [Compound 9] | > 80000 nM | >252 | >36 | fold increase of antimalarial activity against Dd2 versus compound 7 [2, 11]: 3.7 fold; fold reduction of antimalarial activity against Dd2 versus compound 5 [2, 12]: 5.5 fold; fold increase of antimalarial activity against 3D7 versus compound 7 [3, 11]: 2.5 fold; fold reduction of antimalarial activity against 3D7 versus compound 5 [3, 12]: 3.9 fold |
| 1190 ± 270 nM | 5620 ± 383 nM | CC(C)(C)OC(=O)NCCc1c[nH]c2c1C(=O)C1=C(NC=C(I)S1(=O)=O)C2=O [Compound 7] | > 80000 nM | >67 | >14 |  |
| 8 ± 1 nM | 61 ± 9 nM | NCCc1c[nH]c2c1C(=O)C1=C(NC=CS1(=O)=O)C2=O [Compound 1, thiaplakortone A] | 1320 ± 92 nM | 150 | 22 | selectivity index against 3D7 ([4]; HEK293 vs 3D7): 76; IC50 [4]: 51 nM; cytotoxicity against HEK293 cells [6]: low cytotoxicity; selectivity index against Dd2 ([5]; HEK293 vs Dd2): 591; IC50 [5]: 6.6 nM |
| 58 ± 16 nM | 559 ± 145 nM | NCCc1c[nH]c2c1C(=O)C1=C(NC=C(Br)S1(=O)=O)C2=O [Compound 5] | > 80000 nM | >1379 | >143 | cytotoxicity against HEK293 cells observed at 80 μM ([1]; 80 μM (top screening concentration)): minimal cytotoxicity; also recorded: minimal toxicity |

— paper PMC10221708, “Synthesis and Antimalarial Evaluation of Halogenated Analogues of Thiaplakortone A” (Marine Drugs, 2023)
